Common to all, as to assay type: biochemical
In one assay the target is T1, Recombinant human Src (Homo sapiens, UniProt P12931).
T1 construct: made in house; host or cells: baculovirus-insect cell system
As to the kind of experiment: Src tyrosine kinase activity, poly E4Y / 32P-ATP phosphorylation assay.

The target of another assay is Recombinant Csk (Homo sapiens, UniProt P41240). Put plainly: Csk tyrosine kinase activity, poly E4Y / 32P-ATP phosphorylation assay.
Another assay concerns the target FGF receptor (FGFr). Put plainly: FGFr tyrosine kinase activity, poly E4Y / 32P-ATP phosphorylation assay.
[1] abbreviates: Table 3, Formula II compounds, NI = no inhibition at 100 μg/mL.
Setting [2] is: Table 2, Formula I compounds, NI = no inhibition at 100 μg/mL.
The mark [3] stands for this setting: poly E4Y / 32P-ATP, Formula IV compounds.

T1 sequence (P12931 whole entry): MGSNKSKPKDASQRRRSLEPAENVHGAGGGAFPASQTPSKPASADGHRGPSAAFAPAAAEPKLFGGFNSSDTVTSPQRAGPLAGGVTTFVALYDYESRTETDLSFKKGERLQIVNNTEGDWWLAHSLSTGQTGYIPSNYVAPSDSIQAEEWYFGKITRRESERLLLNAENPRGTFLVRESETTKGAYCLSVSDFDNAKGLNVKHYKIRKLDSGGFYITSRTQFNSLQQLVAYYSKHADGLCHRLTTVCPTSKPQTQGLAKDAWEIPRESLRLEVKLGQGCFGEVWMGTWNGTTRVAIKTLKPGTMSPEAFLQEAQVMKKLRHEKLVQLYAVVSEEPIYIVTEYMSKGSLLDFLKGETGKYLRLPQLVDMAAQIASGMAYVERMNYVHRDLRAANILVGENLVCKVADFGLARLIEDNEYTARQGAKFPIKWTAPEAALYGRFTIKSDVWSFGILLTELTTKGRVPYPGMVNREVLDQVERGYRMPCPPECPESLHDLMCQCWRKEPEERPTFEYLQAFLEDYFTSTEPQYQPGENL
Sequence of Recombinant Csk (P41240 whole entry, species assumed): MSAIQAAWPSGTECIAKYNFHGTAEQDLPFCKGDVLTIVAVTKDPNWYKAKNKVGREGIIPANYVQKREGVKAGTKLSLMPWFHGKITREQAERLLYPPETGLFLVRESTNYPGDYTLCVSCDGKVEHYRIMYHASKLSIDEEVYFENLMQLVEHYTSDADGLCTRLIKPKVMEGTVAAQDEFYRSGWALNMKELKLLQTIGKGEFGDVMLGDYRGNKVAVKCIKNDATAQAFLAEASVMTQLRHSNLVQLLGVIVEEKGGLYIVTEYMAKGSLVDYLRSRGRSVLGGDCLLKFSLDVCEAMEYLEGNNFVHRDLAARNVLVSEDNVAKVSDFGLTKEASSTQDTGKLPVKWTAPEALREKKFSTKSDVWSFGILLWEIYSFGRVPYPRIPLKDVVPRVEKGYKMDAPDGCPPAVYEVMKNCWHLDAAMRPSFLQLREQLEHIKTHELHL

For the compound `COc1ccc(Oc2ccc(NS(=O)(=O)c3ccc(Cl)cc3)c(NS(=O)(=O)c3ccc(Cl)cc3)c2)cc1` [Compound 12c, 4-chloro-N-[2-(4-chloro-benzenesulfonylamino)-4-(4-methoxy-phenoxy)-phenyl]-benzenesulfonamide], the half-maximal inhibitory concentration (IC50) at Recombinant human Src (setting [1]) came out at 8.6 µM; on Recombinant Csk (setting [1]), 95 µM; against FGF receptor (FGFr) (setting [1]), 19 µM.
On the same counts, the results for `Cc1ccc(S(=O)(=O)Nc2ccc(Oc3ccc4ccccc4c3)cc2NS(=O)(=O)c2ccc(C)cc2)cc1` [Compound 12u, N-[4-(naphthalene-2-yloxy)-2-(4-toluenesulfonylamino)-phenyl]-4-toluenesulfonamide] are 12 µM, 104 µM and 38 µM.
On the same counts, the results for `Cc1ccc(S(=O)(=O)Nc2ccc(Oc3cccc(C(=O)O)c3)cc2NS(=O)(=O)c2ccc(C)cc2)cc1` [Compound 12x, N-[4-(3-carboxy-phenoxy)-2-(4-toluenesulfonylamino)-phenyl]-4-toluenesulfonamide] are 9.5 µM, 72 µM and 31 µM.
Regarding `COc1ccc(Oc2ccc(NS(=O)(=O)c3cccc4ccccc34)c(NS(=O)(=O)c3cccc4ccccc34)c2)cc1` [Compound 12h, naphthalene-1-sulfonic acid [4-(4-methoxy-phenoxy)-2-(naphthalen-1-yl-sulfonylamino)-phenyl]-amide], the values for the IC50 on Recombinant human Src (setting [1]), on Recombinant Csk (setting [1]) and on FGF receptor (FGFr) (setting [1]) were 9 µM, 98 µM and 36 µM, respectively.
As to `Cc1ccc(S(=O)(=O)Nc2ccc(Oc3ccc(F)cc3)cc2NS(=O)(=O)c2ccc(C)cc2)cc1` [Compound 12t, N-[4-(4-fluoro-phenoxy)-2-(4-toluenesulfonylamino)-phenyl]-4-toluenesulfonamide], the IC50 on Recombinant human Src (setting [1]) turned out to be 19 µM; on Recombinant Csk (setting [1]), 105 µM; against FGF receptor (FGFr) (setting [1]) it was 40 µM.
The matching figures for `Cc1ccc(S(=O)(=O)Nc2ccc(OCC3CCCCC3)cc2NS(=O)(=O)c2ccc(C)cc2)cc1` [Compound 15f, N-[4-cyclohexylmethoxy-2-(4-toluenesulfonylamino)-phenyl]-4-toluenesulfonamide]: 42 µM, greater than 189 µM and 91 µM.
Regarding `Cc1ccc(S(=O)(=O)Nc2cc(SCc3ccccc3Cl)c([N+](=O)[O-])cc2NS(=O)(=O)c2ccc(C)cc2)cc1` [Compound 4r, N-[4-(2-chloro-benzylsulfanyl)-5-nitro-2-(4-toluenesulfonylamino)-phenyl]-4-toluenesulfonamide], the half-inhibitory concentration (IC50) on Recombinant human Src (setting [2]) is 0.65 µM; at Recombinant Csk (setting [2]) it was 4.2 µM; on FGF receptor (FGFr) (setting [2]), 1.9 µM.
With `Cc1ccc(S(=O)(=O)Nc2ccc(Oc3ccc(Cl)cc3)cc2NS(=O)(=O)c2ccc(C)cc2)cc1` [Compound 12w, N-[4-(4-chloro-phenoxy)-2-(4-toluenesulfonylamino)-phenyl]-4-toluenesulfonamide], the results for the IC50 at Recombinant human Src (setting [1]), on Recombinant Csk (setting [1]) and against FGF receptor (FGFr) (setting [1]) were 5.5 µM, 185 µM and 15.3 µM, respectively.
As for `Cc1ccc(S(=O)(=O)Nc2cc(SCc3ccco3)c([N+](=O)[O-])cc2NS(=O)(=O)c2ccc(C)cc2)cc1` [Compound 4p, N-[4-(furan-2-ylmethylsulfanyl)-5-nitro-2-(4-toluenesulfonylamino)-phenyl]-4-toluenesulfonamide], the IC50 at Recombinant human Src (setting [2]) worked out at 1.6 µM; at Recombinant Csk (setting [2]), 11.3 µM; on FGF receptor (FGFr) (setting [2]), 7.3 µM.
The matching figures for `COc1ccc(CSc2cc(NS(=O)(=O)c3ccc(C)cc3)c(NS(=O)(=O)c3ccc(C)cc3)cc2[N+](=O)[O-])cc1` [Compound 4s, N-[4-(4-methoxy-benzylsulfanyl)-5-nitro-2-(4-toluenesulfonylamino)-phenyl]-4-toluenesulfonamide]: 1.3 µM, 5.7 µM and 4.3 µM.
On the same counts, the results for `Cc1ccc(S(=O)(=O)Nc2cc(Sc3cccc(C)c3)c([N+](=O)[O-])cc2NS(=O)(=O)c2ccc(C)cc2)cc1` [Compound 4k, N-[5-nitro-2-(4-toluenesulfonylamino)-4-(m-tolylsulfanyl)-phenyl]-4-toluenesulfonamide] are 1.9 µM, 9.4 µM and 3.1 µM.
As for `CCCCSc1ccc(NS(=O)(=O)c2ccc(C)cc2)c(NS(=O)(=O)c2ccc(C)cc2)c1` [Compound 12hh, N-[4-butylsulfanyl-2-(4-toluenesulfonylamino)-phenyl]-4-toluenesulfonamide], the IC50 on Recombinant human Src (setting [1]) was 18 µM; on Recombinant Csk (setting [1]) it was greater than 198 µM; at FGF receptor (FGFr) (setting [1]), 30 µM.
As for `COc1ccc(Oc2ccc(NS(=O)(=O)c3ccc(C)cc3)c(O)c2)cc1` [Compound 59, N-[2-hydroxy-4-(4-methoxy-phenoxy)-phenyl]-4-toluenesulfonamide], the values for the half-maximal inhibitory concentration (IC50) on Recombinant human Src (setting [3]), on Recombinant Csk (setting [3]) and against FGF receptor (FGFr) (setting [3]) were 65 µM, greater than 259 µM and 65 µM, respectively.
Turning to `Cc1ccc(S(=O)(=O)Nc2cc(Sc3c(C)cccc3C)c([N+](=O)[O-])cc2NS(=O)(=O)c2ccc(C)cc2)cc1` [Compound 4m, N-[4-(2,6-dimethyl-phenylsulfanyl)-5-nitro-2-(4-toluenesulfonylamino)-phenyl]-4-toluenesulfonamide], the IC50 at Recombinant human Src (setting [2]) amounted to 1 µM; on Recombinant Csk (setting [2]), 5.4 µM; against FGF receptor (FGFr) (setting [2]), 4.7 µM.
For the compound `Cc1ccc(S(=O)(=O)Nc2ccc(N(C)C)cc2NS(=O)(=O)c2ccc(C)cc2)cc1` [Compound 17c, N-[4-dimethylamino-2-(4-toluenesulfonylamino)-phenyl]-4-toluenesulfonamide], the concentration for half-maximal inhibition (IC50) at Recombinant human Src (setting [1]) was 39 µM; at Recombinant Csk (setting [1]) it was greater than 218 µM; against FGF receptor (FGFr) (setting [1]), 98 µM.
Consider `COc1ccc(Oc2ccc(NS(=O)(=O)c3ccc(C)cc3)c(OCCO)c2)cc1` [Compound 62, N-[2-(2-hydroxy-ethoxy)-4-(4-methoxy-phenoxy)-phenyl]-4-toluenesulfonamide], for which the IC50 came out at 126 µM on Recombinant human Src (setting [3]) and 15 µM on Recombinant Csk (setting [3]). Besides, on FGF receptor (FGFr) (setting [3]), the “IC50 (μM) FGFr” value was “NI (NI = no inhibition at 100 μg/mL)”.
Consider `COc1ccc(OCc2ccc(OS(=O)(=O)c3ccc(C)cc3)c(OS(=O)(=O)c3ccc(C)cc3)c2)cc1` [Compound 48, [4-(4-methoxy-phenoxymethyl)-2-(4-toluenesulfonyloxy)-phenyl]-4-toluenesulfonate], for which the values for the IC50 on Recombinant human Src (setting [3]) and at Recombinant Csk (setting [3]) were 102 µM and greater than 180 µM, respectively. Moreover, on FGF receptor (FGFr) (setting [3]), the “IC50 (μM) FGFr” value is recorded as “NI (NI = no inhibition at 100 μg/mL)”.
As to `Cc1ccc(S(=O)(=O)Nc2cc(SCc3ccc(Cl)cc3)c([N+](=O)[O-])cc2NS(=O)(=O)c2ccc(C)cc2)cc1` [Compound 4q, N-[4-(4-chloro-benzylsulfanyl)-5-nitro-2-(4-toluenesulfonylamino)-phenyl]-4-toluenesulfonamide], the 50% inhibitory concentration (IC50) at Recombinant human Src (setting [2]) was 1 µM; at Recombinant Csk (setting [2]), 4.1 µM; at FGF receptor (FGFr) (setting [2]) it was 2.7 µM.
For `CCCCS(=O)(=O)Nc1ccc(Oc2ccc(OC)cc2)cc1NS(=O)(=O)CCCC` [Compound 12l, butane-1-sulfonic acid [2-(butane-1-sulfonylamino)-4-(4-methoxy-phenoxy)-phenyl]-amide], the IC50 at Recombinant human Src (setting [1]) is 40 µM; on Recombinant Csk (setting [1]), greater than 212 µM; against FGF receptor (FGFr) (setting [1]), 81 µM.
Regarding `COc1ccc(Oc2ccc(NS(=O)(=O)c3ccc(C)cc3)c(OCCCO)c2)cc1` [Compound 63, N-[2-(3-hydroxy-propoxy)-4-(4-methoxy-phenoxy)-phenyl]-4-toluenesulfonamide], the IC50 was 212 µM on Recombinant human Src (setting [3]) and greater than 225 µM on Recombinant Csk (setting [3]). For the same compound, on FGF receptor (FGFr) (setting [3]), the “IC50 (μM) FGFr” value is recorded as “NI (NI = no inhibition at 100 μg/mL)”.
Take `COc1cccc(NS(=O)(=O)c2ccc(C)cc2)c1NS(=O)(=O)c1ccc(C)cc1` [Compound 22a, N-[3-methoxy-2-(4-toluenesulfonylamino)-phenyl]-4-toluenesulfonamide]: the concentration for half-maximal inhibition (IC50) on Recombinant human Src (setting [1]) and on Recombinant Csk (setting [1]) was greater than 224 µM each time. For the same compound, the “IC50 (μM) FGFr” value against FGF receptor (FGFr) (setting [1]) is “NI (NI = no inhibition at 100 μg/mL)”.
`COc1ccc(COc2ccc(NS(=O)(=O)c3ccc(C)cc3)c(NS(=O)(=O)c3ccc(C)cc3)c2)cc1` [Compound 15e, N-[4-(4-methoxy-benzyloxy)-2-(4-toluenesulfonylamino)-phenyl]-4-toluenesulfonamide]: the figures for the IC50 on Recombinant human Src (setting [1]), on Recombinant Csk (setting [1]) and against FGF receptor (FGFr) (setting [1]) were 15 µM, greater than 181 µM and 132 µM, respectively.
On the same counts, the results for `COc1ccc(Oc2ccc(NS(=O)(=O)c3cccc([N+](=O)[O-])c3)c(NS(=O)(=O)c3cccc([N+](=O)[O-])c3)c2)cc1` [Compound 12f, N-[4-(4-methoxy-phenoxy)-2-(3-nitro-benzenesulfonylamino)-phenyl]-3-nitro-benzenesulfonamide] are 20 µM, greater than 167 µM and 35 µM.
The matching figures for `COc1ccc(Oc2ccc(NS(=O)(=O)c3ccc4ccccc4c3)c(NS(=O)(=O)c3ccc4ccccc4c3)c2)cc1` [Compound 12i, naphthalene-2-sulfonic acid [4-(4-methoxy-phenoxy)-2-(naphthalen-2-yl-sulfonylamino)-phenyl]-amide]: 8 µM, greater than 164 µM and 48 µM.
On the same counts, the results for `Cc1ccc(S(=O)(=O)Nc2ccc(-n3cccn3)cc2NS(=O)(=O)c2ccc(C)cc2)cc1` [Compound 17a, N-[4-(pyrazol-1-yl)-2-(4-toluenesulfonylamino)-phenyl]-4-toluenesulfonamide] are 46 µM, 214 µM and 64 µM.
On to `Cc1ccc(S(=O)(=O)Nc2ccc(-n3cnc4ccccc43)cc2NS(=O)(=O)c2ccc(C)cc2)cc1` [Compound 17b, N-[4-(benzimidazol-1-yl)-2-(4-toluenesulfonylamino)-phenyl]-4-toluenesulfonamide], for which the 50% inhibitory concentration (IC50) on Recombinant human Src (setting [1]) was determined as 21 µM; at Recombinant Csk (setting [1]), 83 µM.
